The text below walks through data of patent US20230020329A1, “Annelated 9-hydroxy-1,8-dioxo-1,3,4,8-tetrahydro-2H-pyrido[1,2-a]pyrazine-7-carboxamides as HIV integrase inhibitors, methods of preparation and application thereof” (priority 2019, published 2023).

For series [1], the system named is HIV. Kind of series: EC50 reported in WO 2014/100323. The series is classed as cell-based. The following applies: A4 vs BIC; A5 vs A6. An excerpt: Specifically, only two inhibitors—A4 and A5—are known to comprise a pyridin-2-ylmethyl moiety instead of a benzyl moiety [WO 2014/100323].
The subject of series [2] is HIV. As to conditions: read-out: EC50 in WO 2014/100323; cited from earlier work.
Series [3] is described as follows: Thermodynamic (shake-flask) solubility. The series is classed as physicochemical. The following applies: for solubility at 24 h: thermodynamic from solid. How it is done:
The test compound of general formula 1 or 2 (2 mg) was weighed into a glass vial. The pION universal buffer (0.5 ml) with pH 7.4 or deionized water was added to appropriate vials. The vials were tightly closed with a lid, placed on a rotating shaker, and incubated for 24 hours to balance the solution and the solid phase at the saturation point. Each resulting solution (200 μl) was taken (in duplicate) from the vials, placed in a 96-well MultiScreen Solubility Filter Plate (Millipore), and filtered using vacuum ([…]) into a polypropylene plate with a U-shaped bottom. If necessary, the filtrates were diluted with an appropriate buffer (water). Then, 120 μl of the filtarate (or a diluted filtrate) was transferred to a 96-well plate with a UV-transparent bottom and 60 μl/well of acetonitrile and 20 μl/well of DMSO were added and thoroughly mixed with a multichannel pipette (acetonitrile and DMSO were added to obtain a required composition of calibration standards, as described below). The optical density of the resulting solutions was measured on a multifunction Infinite 200 PRO plate reader in the wavelength range from 240 nm to 400 nm in steps of 10 nm. The value of ODλ for solutions was assessed at a wavelength chosen for plotting a calibration curve.
The concentration of a substance in the solution after the solubility test was evaluated using a calibration curve. A stock solution in DMSO with a concentration of 2 mg/ml was prepared from a separate sample. […] The range of final concentrations of the calibration curve was 0.2; 0.1; 0.05; 0.025; 0.0125; 0.00625, and 0 mg/ml. Calibration solutions were prepared in a 96-well UV plate as follows: 20 μl of a 10-fold stock solution in DMSO, 60 μl of acetonitrile, and 120 μl of the appropriate buffer were added to the well and stirred. The optical density of the resulting solutions was measured on a multifunction Infinite 200 PRO plate reader in the wavelength range from 240 nm to 400 nm with a step of 10 nm. The optimal wavelength typically corresponding to the absorption maximum was chosen, and a linear dependence of OD at a given wavelength on the concentration of the compound was obtained.
The concentration of the compound in the filtrate after the solubility test was calculated according to the formula:
shake-flask solubility=(ODλfiltrate−ODλblank)/(slope×1.67×filtrate dilution)
wherein slope means the slope of the calibration curve; 1.67 is the filtrate acetonitrile+DMSO dilution ratio; filtrate dilution is an additional dilution of the filtrate, if applicable.

The nature of series [4]: Pharmacokinetics in rat plasma, IV and oral. Format: in vivo, male Sprague-Dawley rats. The following applies: for Cmax: read-out: Cmax; for Tmax: read-out: Tmax. As for the experimental part:
The research was carried out on male Sprague-Dawley rats obtained from Charles River Laboratories (Germany). […] The age of the animals at the time of administration was 8-10 weeks. The animals were pre-catheterized so that all blood samples during the study of each substance could be taken from the same animals. Each substance was tested in 3 animals at each route of administration. The solution of test substances with a concentration of 0.2 mg/ml in 10% DMSO/10% Solutol/80% 0.05M N-methylglucamine was administered to rats intravenously in the tail vein at a dose of 1 mg/kg. Blood samples were collected at 5, 15, 30 min, 1, 2, 4, 8, and 24 hours after administration. Intragastric administration involved gavage using a solution with a concentration of 0.5 mg/ml in 0.5% methylcellulose at a dose of 5 mg/kg. Blood samples were collected at 15, 30 min, 1, 2, 4, 8, and 24 hours after administration. Blood (0.2 ml) was collected in polypropylene tubes containing 20 μl of 5% NaEDTA. Blood plasma was separated by centrifugation at 1500×g for 10 min and stored until testing at a temperature of −80° C. A pure acetonitrile-water (1:1) mixture (5 μl) was added to 45 μl of test samples. The samples were vortexed thoroughly for 10 seconds. Tolbutamide (100 μl) chilled to +4° C. (200 ng/ml in MeCN) was added to the samples and the mixture was vortexed. The samples were precipitated on ice at +4° C. for 15 minutes and then centrifuged at 2700 g for 10 min at +4° C. Supernatants (100 μl each) were transferred to a blank plate for HPLC/MS/MS analysis. The HPLC/MS/MS analysis was performed using an Agilent 1290 Infinity system coupled to an AB Sciex QTrap 6500 mass spectrometer. Pharmacokinetic analysis of plasma concentration vs time data was performed by a model-independent method using the Phoenix™ WinNonlin® 6.3 software (Pharsight Corp.). […]

Series [5] relates to HIV. The following applies: depending on the method of analysis; read-out: Inhibitory activity EC50 (literature); cited from earlier work.
[6] abbreviates: male, Sprague-Dawley, rat plasma, IV 1 mg/kg.
The mark [7] stands for this setting: male, Sprague-Dawley, rat plasma, oral 5 mg/kg.

Values after ≈ are worked out from the molar mass of the structure shown. Read-outs that look alike come from different tables or passages of the source.

For `O=C(NCc1ncc(F)cc1F)c1cn2c(c(O)c1=O)C(=O)N1[C@H]3CC[C@H](C3)[C@@H]1C2` [Compound A5, (1R, 4S, 12aR)-N-[(3,5-difluoropyridin-2-yl)methyl]-7-hydroxy-6,8-dioxo-1,2,3,4,6,8,12,12a-octahydro-1,4-methanodipyrido [1,2-a: 1′, 2′-d]pyrazine-9-carboxamide], the “Decrease in activity relative to the benzyl analogue (times lower)” value with HIV [1] is “almost twofold decrease in activity”. The EC50 in the series with HIV [2] was 17.8 nM.

With `C[C@H]1CO[C@@H]2Cn3cc(C(=O)NCc4ccc(F)cc4F)c(=O)c(O)c3C(=O)N12` [CAB, Cabotegravir, reference compound], the solubility (as a rule, the dissolved amount per volume that the medium holds) at 24 h in series [3] (aqueous buffer, pION universal buffer pH 7.4, 24 h, read-out: Solubility, pH 7.4, value) was determined as 5 µg/mL (≈ 12.3 µM). The “Solubility, water, value” in series [3] (deionized water, 24 h) is 8 µg/mL (≈ 19.7 µM). For the same compound, the solubility at 24 h in series [3] (deionized water, water, read-out: Solubility in water) was 8 µg/mL (≈ 19.7 µM). The bioavailability (in general, the share of a dose that reaches the circulation, judged against a reference dose that is usually intravenous) in series [4] (male, Sprague-Dawley, plasma, rat, oral 5 mg/kg vs IV 1 mg/kg, F=(AUClast PO/5·AUClast IV)·100) amounted to 8.8%. In series [4] (setting [6]), the total exposure AUC(0-inf) (in general, total exposure, with the tail of the curve extrapolated) turned out to be 232 µg·h/mL; the AUC(0-t) (as a rule, the area under the concentration-time curve up to a stated or last time point) turned out to be 141 µg·h/mL; the MRT last – broadly, the average time that molecules of a dose stay in the body – amounted to 9.19 h; the half-life (as a rule, the time needed for the level to fall by half in the phase considered) is 18.3 h. Besides, in series [4] (setting [6]), the Cmax (as a rule, the highest concentration seen after dosing) was found to be 17000 ng/mL and the Tmax – broadly, the time at which the peak concentration occurs – turned out to be 0.08 h. In series [4] (setting [7]), this compound gave a total exposure AUC(0-inf) of 158 µg·h/mL, an AUC(0-t) of 62.3 µg·h/mL, a mean residence time (MRT last) of 8.05 h and a half-life of 19.1 h. For the same compound, in series [4] (setting [7]), the Cmax was 5210 ng/mL and the time to peak (Tmax) worked out at 4.67 h. Also, the concentration at 8 h in series [4] (male, Sprague-Dawley, rat plasma, oral 5 mg/kg, 8 h, read-out: C8 h) came out at 4340 ng/mL. Further, the concentration at 24 h in series [4] (male, Sprague-Dawley, rat plasma, oral 5 mg/kg, 24 h, read-out: C24 h) amounted to 1840 ng/mL. In series [4] (rat plasma, IV 1 mg/kg), the kel turned out to be 0.04 h⁻¹. This compound also had a kel in series [4] (rat plasma, oral 5 mg/kg) of 0.04 h⁻¹. Further, the EC50 in the series with HIV [5] was 0.25 to 3 nM.

As to `O=C(NCc1ncccc1C(F)(F)F)c1cn2c(c(O)c1=O)C(=O)N1[C@@H]3CC[C@@H](C3)O[C@H]1C2` [Compound A4, (2S, 5R, 13aS)-8-hydroxy-7,9-dioxo-N-{[3-(trifluoromethyl)pyridin-2-yl]methyl}-2,3,4,5,7,9,13,13a-octahydro-2,5-methanpyrido[1′, 2′: 4,5]pyrazino[2,1-b][1,3]oxazepine-10-carboxamide], the “Decrease in activity relative to the benzyl analogue (times lower)” value with HIV [1] is given as 13.3. Also, the EC50 in the series on HIV [2] is 33.3 nM.

In the case of `O=C(NCc1c(F)cc(F)cc1F)c1cn2c(c(O)c1=O)C(=O)N1[C@H]3CC[C@H](C3)O[C@@H]1C2` [BIC, Bictegravir], the EC50 in the series with HIV [5] is 1 to 7.5 nM; in the series with HIV [2] it was 2.5 nM.
